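Following 48 hours of exposure in 96-well plates, responses at five concentrations were used to interpolate endpoints linearly. At the TGI there is no net growth.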
Assays:
Assay in all cases: growth of human tumour cells (NCI), 48 h
786-0 renal = system: 786-0 renal
A498 renal = system: A498 renal
A549 NSCLC = system: A549 NSCLC
ACHN renal = system: ACHN renal
BT-549 breast = system: BT-549 breast
CAKI-1 renal = system: CAKI-1 renal
COLO 205 colon = system: COLO 205 colon
DU-145 prostate = system: DU-145 prostate
EKVX NSCLC = system: EKVX NSCLC
HCC-2998 colon = system: HCC-2998 colon
HCT-116 colon = system: HCT-116 colon
HCT-15 colon = system: HCT-15 colon
HL-60(TB) leukemia = system: HL-60(TB) leukemia
HOP-62 NSCLC = system: HOP-62 NSCLC
HOP-92 NSCLC = system: HOP-92 NSCLC
HS 578T breast = system: HS 578T breast
HT29 colon = system: HT29 colon
IGROV1 ovarian = system: IGROV1 ovarian
K-562 leukemia = system: K-562 leukemia
KM12 colon = system: KM12 colon
LOX IMVI melanoma = system: LOX IMVI melanoma
M14 melanoma = system: M14 melanoma
MALME-3M melanoma = system: MALME-3M melanoma
MCF7 breast = system: MCF7 breast
MDA-MB-231 breast = system: MDA-MB-231 breast
MDA-MB-435 = system: MDA-MB-435
MDA-N = system: MDA-N
MOLT-4 leukemia = system: MOLT-4 leukemia
NCI-H226 lung = system: NCI-H226 lung
NCI-H23 lung = system: NCI-H23 lung
NCI-H460 lung = system: NCI-H460 lung
NCI-H522 lung = system: NCI-H522 lung
NCI/ADR-RES ovarian = system: NCI/ADR-RES ovarian
OVCAR-3 ovarian = system: OVCAR-3 ovarian
OVCAR-4 ovarian = system: OVCAR-4 ovarian
OVCAR-5 ovarian = system: OVCAR-5 ovarian
OVCAR-8 ovarian = system: OVCAR-8 ovarian
PC-3 prostate = system: PC-3 prostate
RPMI-8226 leukemia = system: RPMI-8226 leukemia
RXF 393 renal = system: RXF 393 renal
SF-268 CNS = system: SF-268 CNS
SF-295 CNS = system: SF-295 CNS
SF-539 CNS = system: SF-539 CNS
SK-MEL-2 melanoma = system: SK-MEL-2 melanoma
SK-MEL-28 melanoma = system: SK-MEL-28 melanoma
SK-MEL-5 melanoma = system: SK-MEL-5 melanoma
SK-OV-3 ovarian = system: SK-OV-3 ovarian
SN12C renal = system: SN12C renal
SNB-19 CNS = system: SNB-19 CNS
SNB-75 CNS = system: SNB-75 CNS
SW-620 colon = system: SW-620 colon
T-47D breast = system: T-47D breast
TK-10 renal = system: TK-10 renal
U251 CNS = system: U251 CNS
UACC-257 melanoma = system: UACC-257 melanoma
UACC-62 melanoma = system: UACC-62 melanoma
UO-31 renal = system: UO-31 renal
CCRF-CEM leukemia = system: CCRF-CEM leukemia

Cn1c(=O)c2c(nc3n2CC(C(=O)O)N3)n(C)c1=O (centres undefined)
TGI (786-0 renal): > 100 µM | TGI (A498 renal): > 100 µM | TGI (A549 NSCLC): > 100 µM | TGI (ACHN renal): > 100 µM | TGI (BT-549 breast): > 100 µM | TGI (CAKI-1 renal): > 100 µM | TGI (COLO 205 colon): > 100 µM | TGI (DU-145 prostate): > 100 µM | TGI (EKVX NSCLC): > 100 µM | TGI (HCC-2998 colon): > 100 µM | TGI (HCT-116 colon): > 100 µM | TGI (HCT-15 colon): > 100 µM | TGI (HL-60(TB) leukemia): > 100 µM | TGI (HOP-62 NSCLC): > 100 µM | TGI (HOP-92 NSCLC): > 100 µM | TGI (HS 578T breast): > 100 µM | TGI (HT29 colon): > 100 µM | TGI (IGROV1 ovarian): > 100 µM | TGI (K-562 leukemia): > 100 µM | TGI (KM12 colon): > 100 µM | TGI (LOX IMVI melanoma): > 100 µM | TGI (M14 melanoma): > 100 µM | TGI (MALME-3M melanoma): > 100 µM | TGI (MCF7 breast): > 100 µM | TGI (MDA-MB-231 breast): > 100 µM | TGI (MDA-MB-435): > 100 µM | TGI (MDA-N): > 100 µM | TGI (MOLT-4 leukemia): 0.242 µM | TGI (NCI-H226 lung): > 100 µM | TGI (NCI-H23 lung): > 100 µM | TGI (NCI-H460 lung): > 100 µM | TGI (NCI-H522 lung): > 100 µM | TGI (NCI/ADR-RES ovarian): > 100 µM | TGI (OVCAR-3 ovarian): > 100 µM | TGI (OVCAR-4 ovarian): > 100 µM | TGI (OVCAR-5 ovarian): > 100 µM | TGI (OVCAR-8 ovarian): > 100 µM | TGI (PC-3 prostate): > 100 µM | TGI (RPMI-8226 leukemia): > 100 µM | TGI (RXF 393 renal): > 100 µM | TGI (SF-268 CNS): > 100 µM | TGI (SF-295 CNS): > 100 µM | TGI (SF-539 CNS): > 100 µM | TGI (SK-MEL-2 melanoma): > 100 µM | TGI (SK-MEL-28 melanoma): > 100 µM | TGI (SK-MEL-5 melanoma): > 100 µM | TGI (SK-OV-3 ovarian): > 100 µM | TGI (SN12C renal): > 100 µM | TGI (SNB-19 CNS): > 100 µM | TGI (SNB-75 CNS): > 100 µM | TGI (SW-620 colon): > 100 µM | TGI (T-47D breast): > 100 µM | TGI (TK-10 renal): > 100 µM | TGI (U251 CNS): > 100 µM | TGI (UACC-257 melanoma): > 100 µM | TGI (UACC-62 melanoma): > 100 µM | TGI (UO-31 renal): > 100 µM

CCC(=O)NCC1CCCN2CCCCC12 (centres undefined)
TGI (786-0 renal): > 100 µM | TGI (A498 renal): > 100 µM | TGI (A549 NSCLC): > 100 µM | TGI (ACHN renal): > 100 µM | TGI (BT-549 breast): > 100 µM | TGI (CAKI-1 renal): > 100 µM | TGI (CCRF-CEM leukemia): > 100 µM | TGI (COLO 205 colon): > 100 µM | TGI (DU-145 prostate): > 100 µM | TGI (EKVX NSCLC): > 100 µM | TGI (HCC-2998 colon): > 100 µM | TGI (HCT-116 colon): > 100 µM | TGI (HCT-15 colon): > 100 µM | TGI (HL-60(TB) leukemia): > 100 µM | TGI (HOP-92 NSCLC): > 100 µM | TGI (HS 578T breast): > 100 µM | TGI (HT29 colon): > 100 µM | TGI (K-562 leukemia): > 100 µM | TGI (KM12 colon): > 100 µM | TGI (LOX IMVI melanoma): > 100 µM | TGI (MALME-3M melanoma): > 100 µM | TGI (MCF7 breast): > 100 µM | TGI (MDA-MB-231 breast): > 100 µM | TGI (MDA-MB-435): > 100 µM | TGI (MDA-N): > 100 µM | TGI (MOLT-4 leukemia): > 100 µM | TGI (NCI-H226 lung): > 100 µM | TGI (NCI-H23 lung): > 100 µM | TGI (NCI-H460 lung): > 100 µM | TGI (NCI/ADR-RES ovarian): > 100 µM | TGI (OVCAR-4 ovarian): > 100 µM | TGI (OVCAR-8 ovarian): > 100 µM | TGI (PC-3 prostate): > 100 µM | TGI (RPMI-8226 leukemia): > 100 µM | TGI (RXF 393 renal): > 100 µM | TGI (SF-268 CNS): > 100 µM | TGI (SF-295 CNS): > 100 µM | TGI (SF-539 CNS): > 100 µM | TGI (SK-MEL-2 melanoma): > 100 µM | TGI (SK-MEL-28 melanoma): > 100 µM | TGI (SK-MEL-5 melanoma): > 100 µM | TGI (SK-OV-3 ovarian): > 100 µM | TGI (SN12C renal): > 100 µM | TGI (SNB-19 CNS): > 100 µM | TGI (SNB-75 CNS): > 100 µM | TGI (SW-620 colon): > 100 µM | TGI (T-47D breast): > 100 µM | TGI (TK-10 renal): > 100 µM | TGI (U251 CNS): > 100 µM | TGI (UACC-257 melanoma): > 100 µM | TGI (UACC-62 melanoma): > 100 µM | TGI (UO-31 renal): > 100 µM
